For data set [1], the target named is T1, DBH (Bos taurus, UniProt P15101).
T1 sequence (P15101 1-610): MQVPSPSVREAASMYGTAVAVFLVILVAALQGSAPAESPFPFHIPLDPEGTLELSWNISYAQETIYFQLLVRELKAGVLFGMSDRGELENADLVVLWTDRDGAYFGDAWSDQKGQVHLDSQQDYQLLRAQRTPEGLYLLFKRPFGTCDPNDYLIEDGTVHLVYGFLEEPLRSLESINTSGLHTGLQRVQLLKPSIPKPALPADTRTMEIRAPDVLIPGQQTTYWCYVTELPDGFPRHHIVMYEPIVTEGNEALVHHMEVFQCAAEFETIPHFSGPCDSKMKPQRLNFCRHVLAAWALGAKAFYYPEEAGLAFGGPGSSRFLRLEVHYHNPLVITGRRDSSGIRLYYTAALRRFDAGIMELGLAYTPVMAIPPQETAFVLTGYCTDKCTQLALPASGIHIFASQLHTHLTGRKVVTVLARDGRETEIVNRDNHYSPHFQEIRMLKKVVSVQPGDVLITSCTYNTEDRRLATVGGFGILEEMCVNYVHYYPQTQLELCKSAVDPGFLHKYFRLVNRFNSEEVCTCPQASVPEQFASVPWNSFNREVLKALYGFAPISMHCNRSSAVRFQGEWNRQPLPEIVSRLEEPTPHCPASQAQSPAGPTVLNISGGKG
Put plainly: in vitro DBH inhibition, conversion of tyramine to octopamine. It is filed as biochemical. The protocol: Compounds of the invention and other compounds useful in the method of the invention were screened for in vitro DBH inhibition by a standard procedure for assaying conversion of tyramine to octopamine in the presence of DBH. Octopamine was assayed following sodium periodate oxidation to p-hydroxybenzaldehyde by measuring spectrophotometric absorbance at 330 nm. Inhibition is given in molar concentration of compound at which DBH activity was halved (IC50). Melting points (mp) are given in °C. By this procedure fusaric acid has an IC50 of about 8×10^-7.

The test system of data set [2] is peripheral dopamine (DA) and norepinephrine (NE) levels. The data set can be described thus: in vivo effects on peripheral dopamine (DA) and norepinephrine (NE) levels. More on the design: species or system Spontaneously hypertensive rats. As to conditions: dosed twice about 18 hours apart, sacrificed about 2 hours after second dose. The protocol: (§1) Various compounds of the invention were tested for their effects in vivo on peripheral dopamine (DA) and norepinephrine (NE) levels substantially by the procedure of DaPrada and Zurcher, Life Sci., 19, 1161, (1976). Spontaneously hypertensive rats were dosed twice, the second dose being about 18 hours after the first, and were sacrificed about 2 hours after the second dose.

Data set [3] is described as follows: mean arterial blood pressure, indwelling cannulae inserted into the tail artery. It is filed as in vivo, Spontaneously hypertensive rats. As to conditions: 50 mg/kg, ip. As to the method: as §1
Further, the same rats were dosed with a suspension or solution at a dose of 50 mg/kg of test compound i.p. and mean arterial blood pressure was determined with indwelling cannulae inserted into the tail artery.

The conditions of data set [4]: Teresawa et al., Japan Cir. J. 35, 339 (1971); cited from earlier work.
[5] abbreviates: octopamine assayed after periodate oxidation, absorbance at 330 nm, read-out: IC50 (molar concentration of compound at which DBH activity was halved).

Each structure is given as a SMILES string. pIC50: −log10 of the molar value. Read-outs that look alike come from different tables or passages of the source.

`Fc1cc(F)cc(Cn2nnnc2S)c1` [Example 1, 1-(3,5-Difluorobenzyl)-5-mercaptotetrazole]: in data set [1] (setting [5]), the pIC50 is 5.82. `Sc1nnnn1Cc1cc(Cl)cc(Cl)c1` [Example 2, 1-(3,5-Dichlorobenzyl)-5-mercaptotetrazole]: the pIC50 in data set [1] (setting [5]) is 6.00. The “DA/NE Ratio” value in data set [2] is 0.053 ± 0.0035. In addition, in data set [2] (micrograms per gram of tissue), the DA is 0.360 ± 0.015 µg/g and the NE is 6.838 ± 0.257 µg/g. In data set [3], the “reduction in mean arterial pressure” value is on record as “significant reduction in mean arterial pressure”. Consider `Sc1nnnn1Cc1c(Cl)cccc1Cl` [Example 3, 1-(2,6-Dichlorobenzyl)-5-mercaptotetrazole], for which, in data set [1] (setting [5]), the pIC50 is 5.04.

On to `COc1ccc(Cn2nnnc2S)cc1` [Example 4, 1-(4-Methoxybenzyl)-5-mercaptotetrazole], for which the pIC50 in data set [1] (setting [5]) was 4.82. On the same count and under the same terms, the result for `Sc1nnnn1CCCc1ccccc1` [Example 5, 1-(3-Phenylpropyl)-5-mercaptotetrazole] reads 5.62. Consider `Sc1nnnn1Cc1ccccc1` [Example 6, 1-Benzyl-5-mercaptotetrazole], for which the pIC50 in data set [1] (setting [5]) is 4.89. In addition, the “reduction in mean arterial pressure” value in data set [3] is “significant reduction in mean arterial pressure”. For `Fc1cc(F)cc(CCCn2nnnc2S)c1` [Example 7, 1-(3-(3,5-Difluorophenyl)propyl)-5-mercaptotetrazole], the pIC50 in data set [1] (setting [5]) was 6.46.

`Sc1nnnn1CCCc1cc(Cl)cc(Cl)c1` [Example 9, 1-(3-(3,5-Dichlorophenyl)propyl)-5-mercaptotetrazole]: in data set [1] (setting [5]), the pIC50 was 6.41. As to `Oc1ccc(CCCn2nnnc2S)cc1` [Example 11, 1-(3-(4-Hydroxyphenyl)propyl)-5-mercaptotetrazole], the pIC50 in data set [1] (setting [5]) was 6.10.

As for `Oc1c(F)cc(CCCn2nnnc2S)cc1F` [Example 12, 1-(3-(3,5-Difluoro-4-hydroxyphenyl)propyl)-5-mercaptotetrazole], the pIC50 in data set [1] (setting [5]) was 7.10. In turn, `CCCCc1ccc(C(=O)O)nc1` [Fusaric acid, fusaric acid, reference compound] had a pIC50 in data set [1] of about 6.10. Further, the hepatotoxicity result in data set [4] is given as “hepatotoxic”.

Values taken from US4707488A, “Dopamine-β-hydroxylase inhibitors and use thereof” (Smithkline Beckman Corporation, priority 1985, dated 1987).
